# Measurements from patent US20070065443A1, “Fructoseamine 3 kinase and the formation of collagen and elastin” (priority 2004, published 2007).
# “And” between values parts separate entries of the source, which are not always exact repeats. Equal entries are not always repeated.
# How the values were obtained:
# [1] = test system: 3DG; assay: Plasma 3DG levels in diabetic and non-diabetic rats treated with 3-O-methyl sorbitollysine; type: in vivo, rat; conditions: for plasma 3DG level: 50 mg/kg body weight injections, within one week
# Protocol: A cohort of twelve diabetic rats was divided into two groups of six. The first group received saline-only injections, and the second received injections of 3-O-methyl sorbitollysine (50 mg/kg body weight) in saline solution. The same procedure was conducted on a cohort of twelve non-diabetic rats.
# [2] = Locus of 3-O-methyl sorbitollysine uptake in vivo (tissue, urine, plasma); design: species or system rat
# Protocol: […] Urine was collected for 3 hours, after which the rats were sacrificed. The tissues to be analyzed were removed and freeze clamped in liquid nitrogen. Perchloric acid extracts of the tissues were used for metabolite analysis. The tissues examined were taken from the brain, heart, muscle, sciatic nerve, spleen, pancreas, liver, and kidney. Plasma was also analyzed.
# [3] = test system: STZ-diabetic rats; assay: Skin elasticity measurement (vacuum pull to displace skin); type: in vivo, rat; conditions: 50 mg/kg daily s.c. for eight weeks
# Protocol: Experiments were performed to determine the effects of DYN 12 on the loss of skin elasticity associated with diabetes. To this end, two groups of STZ-diabetic rats and two groups of normal rats were subjected to treatment with DYN 12 or saline. One 'group of STZ-diabetic rats (n=9) received daily subcutaneous injections of DYN 12 at 50 mg/kg for eight weeks, as did one group of normal rats (n=6). A group of control diabetic rats (n=10) and a group of normal rats (n=6) received saline instead of DYN 12. One rat was removed from the diabetic DYN 12 group after 2 weeks because its blood glucose readings were inconsistent (too low) with other diabetic rats.
# A non-invasive procedure based on CyberDERM, Inc. technology utilizing a skin elasticity measurement device was used to test the effects of DYN 12 treatment on skin elasticity. The procedure provides for non-invasive measurement of skin elasticity based upon the amount of vacuum pull required to displace skin. A suction cup probe is adhered to an area of shaved skin in order to form an airtight seal. Then, a vacuum is applied to the area of the skin inside the suction cup until the skin is displaced past a sensor located inside the probe. Accordingly, the more pressure that is required to displace the skin, the less elastic the skin is.
# [4] = Distribution of DYN-12 in plasma, urine and kidney; type: in vivo, rat; conditions: individual rats, 100 micromols i.p.
# Protocol: Rats were injected intraperitoneally with 1 ml of a 100 mM solution of DYN-12 (100 micromols). Urine was collected for 1 hr, and DYN-12 levels measured. After 1 hr the animals were sacrificed and DYN-12 levels measured in both plasma and kidney tissue.
# [5] = target: T1, fructoseamine kinase (Homo sapiens, UniProt Q9H479); assay: Fructoseamine kinase inhibition (Ki); type: biochemical
# T1 sequence (Q9H479 1-309): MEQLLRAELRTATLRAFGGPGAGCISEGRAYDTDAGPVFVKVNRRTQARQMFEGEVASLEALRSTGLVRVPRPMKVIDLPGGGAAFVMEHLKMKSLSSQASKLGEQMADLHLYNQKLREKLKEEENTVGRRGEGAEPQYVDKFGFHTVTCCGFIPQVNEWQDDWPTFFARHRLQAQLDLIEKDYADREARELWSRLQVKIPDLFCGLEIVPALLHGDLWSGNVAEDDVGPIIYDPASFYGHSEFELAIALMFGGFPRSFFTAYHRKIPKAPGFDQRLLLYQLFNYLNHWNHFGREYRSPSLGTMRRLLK
smiles,measurement,setting,value
"COC(C(O)CNCCCCC(N)C(=O)O)C(O)C(O)CO (stereo not drawn) [DYN 12, 3-O-methylsorbitollysine]",% Reduction of plasma 3DG vs saline only,[1]; diabetic rats,53%
same,plasma 3DG level,[1]; diabetic rats,0.44 ± 0.10 µM
same,% Reduction of plasma 3DG vs saline only,[1]; non-diabetic rats,43%
same,plasma 3DG level,[1]; non-diabetic rats,0.13 ± 0.02 µM
same,presence of the compound in plasma,[2]; 3 hours after i.p. injection,plasma did not
same,tissue extracts containing the compound,"[2]; brain, heart, muscle, sciatic nerve, spleen, pancreas, liver, kidney examined, 3 hours",only tissue extract found to contain 3-O-methyl sorbitollysine was that of the kidney
same,nmols 3OMeSL in kidneys,"[2]; individual rats, 13500 nmols i.p., 3 hours, listed as 3OMeSL",8155 nmols and 3880 nmols and 10071 nmols and 6582 nmols and 5373 nmols and 4833 nmols
same,nmols 3OmeSL in urine,"[2]; individual rats, 13500 nmols i.p., urine collected 3 hours, listed as 3OMeSL",4200 nmols and 1355 nmols and 2940 nmols and 1675 nmols and 1778 nmols and 2360 nmols
same,"% 3OMeSL recovered (of injected dose, urine and kidney)","[2]; individual rats, 3 hours after i.p. injection, listed as 3OMeSL",91.5% and 38.8% and 96.4% and 61.2% and 53.0% and 53.3%
same,total 3OMeSL recovered,"[2]; individual rats, urine plus kidneys, 3 hours, listed as 3OMeSL",12355 nmols and 5235 nmols and 13011 nmols and 8257 nmols and 7151 nmols and 7193 nmols
same,pressure needed to displace the skin,[3],3.2+/−1.2 kPA
same,DYN-12 concentration Kidney,[4]; 1 hr,6.54 µmol/g and 9.19 µmol/g and 8.21 µmol/g
same,DYN-12 concentration Plasma,[4]; 1 hr,0.335 µmol/mL and 0.269 µmol/mL and 0.296 µmol/mL
same,DYN-12 concentration Urine,[4]; urine collected 1 hr,41.99 µmol/mL and 17.81 µmol/mL and 15.03 µmol/mL
same,Ki,[5],2000 to 3000 µM
